From patent US8420823B2, “Long-chain fatty acyl elongase inhibitor comprising arylsulfonyl derivative as active ingredient” (MSD K.K., priority 2008, dated 2013)
Counter-ions that a name gives are not always drawn.

biological target: T1, human LCE (Homo sapiens, UniProt Q9H5J4); test: LCE enzyme activity-inhibitory test; format: biochemical; details: [14C]-malonyl CoA / palmitoyl CoA substrate, 37° C., 90 minutes
T1 sequence (Q9H5J4 1-265): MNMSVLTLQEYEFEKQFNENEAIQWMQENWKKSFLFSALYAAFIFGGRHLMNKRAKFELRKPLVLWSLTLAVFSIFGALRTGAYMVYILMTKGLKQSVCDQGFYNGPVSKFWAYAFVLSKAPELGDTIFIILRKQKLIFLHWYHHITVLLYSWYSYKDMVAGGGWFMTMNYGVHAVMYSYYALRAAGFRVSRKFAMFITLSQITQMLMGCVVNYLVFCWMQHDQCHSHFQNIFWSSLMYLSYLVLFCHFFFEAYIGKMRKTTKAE
Outline: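 Human LCE (100 μg/mL in enzyme solution) was incubated 90 min at 37 °C in 100 mM potassium phosphate pH 6.5 with palmitoyl CoA, malonyl CoA, [14C]-malonyl CoA, rotenone and fatty acid-free BSA. Acid-stopped, hydrolyzed products were captured on GF/C filters and counted by scintillation. Inhibition was calculated against DMSO control.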

IC50 [µM]	SMILES
1.5	CC(C)Oc1ccc(NC(=O)c2cccc(S(=O)(=O)N3CCCC(F)(F)C3)c2)cc1 [Example 19, 3-[(3,3-Difluoropiperidin-1-yl)sulfonyl]-N-(4-isopropoxyphenyl)benzamide]
0.76	CC(C)Oc1ccc(NC(=O)c2cccc(S(=O)(=O)N3C[C@@H]4C[C@H]3CO4)c2)cc1 [Example 10, N-(4-isopropoxyphenyl)-3-[(1S,4S)-2-oxa-5-azabicyclo[2.2.1]hept-5-ylsulfonyl]benzamide]
5.1	CC(C)Oc1ccc(NC(=O)c2cccc(S(=O)(=O)N3CCc4o[nH]c(=O)c4C3)c2)cc1 [Example 22, N-(4-isopropoxyphenyl)-3-[(3-oxo-2,3,6,7-tetrahydroisoxazolo[4,5-c]pyridin-5(4H)-yl)sulfonyl]benzamide]
5.2	CC(C)c1ccc(NC(=O)c2cccc(S(=O)(=O)Nc3ccccc3)c2)cc1 [Example 39, 3-(Anilinosulfonyl)-N-(4-isopropylphenyl)benzamide]
2.8	CC(C)c1ccc(NC(=O)c2cccc(S(=O)(=O)N3[C@H](C)CCC[C@@H]3C)c2)cc1 [Example 31, 3-{[(2R,6S)-2,6-dimethylpiperidin-1-yl]sulfonyl}-N-(4-isopropylphenyl)benzamide]
5.1	COc1ccccc1NC(=O)c1cccc(S(=O)(=O)N2CCC[C@@H](O)C2)c1 [Example 41, 3-{[(3R)-3-hydroxypiperidin-1-yl]sulfonyl}-N-(2-methoxyphenyl)benzamide]
2.2	O=C(Nc1ccccc1)c1cccc(S(=O)(=O)N2CCCCC2)c1 [Example 88, N-phenyl-3-(piperidin-1-ylsulfonyl)benzamide]
0.074	CC(C)Oc1ccc(NC(=O)c2cccc(S(=O)(=O)C3CCCCC3)c2)cc1 [Example 144, 3-(Cyclohexylsulfonyl)-N-(4-isopropoxyphenyl)benzamide]
0.036	CC(C)Oc1ccc(NC(=O)c2cccc(S(=O)(=O)N3CC4CCC3C4)c2)cc1 (centres unmarked) [Example 2, 3-(2-Azabicyclo[2.2.1]hept-2-ylsulfonyl)-N-(4-isopropoxyphenyl)benzamide]
0.16	CC(C)c1ccc(NC(=O)c2cccc(S(=O)(=O)c3ccccc3)c2)cc1 [Example 136, N-(4-isopropylphenyl)-3-(phenylsulfonyl)benzamide]
2.6	CC(C)c1ccc(NC(=O)c2cccc(S(=O)(=O)N3CC[C@@H](F)C3)c2)cc1 [Example 33]

Continued, molecule first:

SMILES	IC50 [µM]
C=Cc1cnc(NC(=O)c2cccc(S(=O)(=O)N3CCCCC3)c2)c(OC)c1 [Example 107, N-(3-methoxy-5-vinylpyridin-2-yl)-3-(piperidin-1-ylsulfonyl)benzamide]	0.52
COCC(C)Oc1ccc(NC(=O)c2cccc(S(=O)(=O)c3ccccn3)c2)c(F)c1 (centres unmarked) [Example 123, N-[2-fluoro-4-(2-methoxy-1-methylethoxy)phenyl]-3-(pyridin-2-ylsulfonyl)benzamide]	2.7
COc1cccnc1NC(=O)c1cccc(S(=O)(=O)N2CCCCC2)c1 [Example 99, N-(3-methoxypyridin-2-yl)-3-(piperidin-1-ylsulfonyl)benzamide]	0.036
CC(C)Oc1cc(NC(=O)c2cccc(S(=O)(=O)N3CCCC(CO)C3)c2)[nH]n1 (centres unmarked) [Example 65, 5-[(3-{[3-(hydroxymethyl)piperidin-1-yl]sulfonyl}benzoyl)amino]-3-isopropoxy-1H-pyrazole hydrochloride]	0.0059
COc1cccnc1NC(=O)c1cccc(S(=O)(=O)N2CCCC(C(=O)OCc3ccccc3)C2)c1 (centres unmarked) [Example 62, Benzyl 1-[(3-{[(3-methoxypyridin-2-yl)amino]carbonyl}phenyl)sulfonyl]piperidine-3-carboxylate]	0.093
CC(C)Oc1cc(NC(=O)c2cccc(S(=O)(=O)N3CCCC(O)C3)c2)[nH]n1 (centres unmarked) [Example 66, 5-({3-[(3-Hydroxypiperidin-1-yl)sulfonyl}benzoyl]amino)-3-isopropoxy-1H-pyrazole hydrochloride]	0.028
COc1cc(Br)cnc1NC(=O)c1cccc(S(=O)(=O)N2CCCCC2)c1 [Example 106, N-(5-bromo-3-methoxypyridin-2-yl)-3-(piperidin-1-ylsulfonyl)benzamide]	1.8
CCOc1ccc(S(=O)(=O)N2CCCCC2)cc1C(=O)Nc1ccc(OC(C)C)cc1 [Example 152, 2-Ethoxy-N-(4-isopropoxyphenyl)-5-(piperidin-1-ylsulfonyl)benzamide]	0.18
COc1cccnc1NC(=O)c1cccc(S(=O)(=O)N2C[C@H]3C[C@@H]2CO3)c1 [Example 53, N-(3-methoxypyridin-2-yl)-3-[(1R,4R)-2-oxa-5-azabicyclo[2.2.1]hept-5-ylsulfonyl]benzamide]	7.6
CC(C)Oc1ccc(C(=O)NCCc2cccc(S(=O)(=O)N3CCCCC3)c2)cc1 [Example 161, 4-Isopropoxy-N-{2-[3-(piperidin-1-ylsulfonyl)phenyl]ethyl}benzamide]	4.8
CC(C)COc1ccc(NC(=O)c2cccc(S(=O)(=O)c3ccccn3)c2)c(F)c1 [Example 127, N-(2-fluoro-4-isobutoxyphenyl)-3-(pyridin-2-ylsulfonyl)benzamide]	1
CCCCOc1cc(NC(=O)c2cccc(S(=O)(=O)c3ccccn3)c2)[nH]n1 [Example 119, N-(3-butoxy-1H-pyrazol-5-yl)-3-(pyridin-2-ylsulfonyl)benzamide]	0.006
O=C(NCCc1ccccc1)c1cccc(S(=O)(=O)N2CCCCC2)c1 [Example 78, N-(2-phenylethyl)-3-(piperidin-1-ylsulfonyl)benzamide]	7.9
COc1ccc(NC(=O)c2cccc(S(=O)(=O)NCCCCC(=O)O)c2)cc1 [Example 44, 5-{[(3-{[(4-methoxyphenyl)amino]carbonyl}phenyl)sulfonyl]amino}pentanoic acid]	15
CC(C)Oc1ccc(NC(=O)c2cccc(S(=O)(=O)c3ccccn3)c2)nc1Br [Example 129, N-(6-bromo-5-isopropoxypyridin-2-yl)-3-(pyridin-2-ylsulfonyl)benzamide]	4.5
